# According to article PMC11677243, “Target protein identification in live cells and organisms with a non-diffusive proximity tagging system” (eLife, 2024):
# Columns and labels:
# HEK293T cells [1] = test: POST-IT^DC661-H1 target-ID by SILAC (LC-MS/MS, DC660 competition); format: cell-based, Homo sapiens; details: heavy: 200 nM DC661-H1, light: DC661-H1 (200 nM) and DC660 (2 µM)
# Experimental: A stable HEK293T cells expressing the POST-IT system was generated using the PiggyBac transposon system. Briefly, HEK293T cells on a 60 mm dish were co-transfected with 8 µg of PB-puro-CMV-POST-IT-Tet-SBP^K4R-sPup^K61R-iresGFP and 2 µg of the Super PiggyBac Transposase expression vector (PB200PA-1, System Biosciences, USA). Four days later, cells were treated with 5 µg/ml puromycin for about 2 weeks. Media containing puromycin were changed every 3–4 days.
# The stable cell line was cultured in SILAC DMEM (280001200, Silantes, Germany) without arginine, lysine, and glutamine, supplemented with 10% dialyzed FBS (C3820-0100, VivaCell Biosciences, China) and 2 mM glutamine. The SILAC medium included 600 mg/l proline (P120032, aladdin, China) to prevent the conversion of arginine to proline ([Bendall et al., 2008]). […]
# The expression of POST-IT was induced by the addition of 100 ng/ml doxycycline. […] Cell debris was removed by centrifugation, and protein concentration was determined by the BCA assay. […]
# Excised gels were sliced into small pieces of ~1 mm^3, rinsed three times with Milli-Q water, decolorized with 50% acetonitrile and 100 mM NH4HCO3, and dehydrated with 100% acetonitrile. […] The resulting tryptic peptides were analyzed by LC-MS/MS at the Institute of Hydrobiology (Chinese Academy of Sciences, Wuhan, China). […]
# LC3-II [2] = test: Autophagy inhibition by LC3-II western blot in HEK293T cells; format: cell-based, Homo sapiens; details: 12 hr
# Source text: (§1) Cells transfected and/or treated with different compounds were harvested at the end of treatment.
# LC3-II [3] = test: Autophagy inhibition by LC3-II western blot in A375 cells; format: cell-based, Homo sapiens; details: 12 hr
# Source text: as §1
# VPS37C-V5 = molecular target: T1, VPS37C-V5 (Homo sapiens, UniProt A5D8V6); test: POST-IT labeling and streptavidin pulldown of VPS37C-V5 in HEK293T cells; format: cell-based; details: 200 nM DC661-H1, 24 hr
# T1 construct: expressed in transfected cells; host or cells: HEK293T
# SEPHS2 = molecular target: T2, SEPHS2 (Homo sapiens, UniProt Q99611, U60C); test: MST binding to Cy5-labeled SEPHS2; details: Cy5-labeled recombinant SEPHS2; n = 2, mean ± s.d.
# T2 construct: SBPII (N); 6xHis (pET28a backbone, Ni column purification); made in house; host or cells: E. coli BL21(DE3)
# SRC [4] = molecular target: T3, SRC (Homo sapiens, UniProt P12931); test: In cellulo pupylation and pulldown assay of SRC in HEK293T cells; format: cell-based; details: 250 nM DH5
# T3 construct: endogenous in cells; host or cells: HEK293T
# HEK293T cells [5] = test: POST-IT^DH5 target-ID proteomics (LC-MS/MS, dasatinib competition); format: cell-based, Homo sapiens; details: for FC(DH5/DASA) / log2(FC(DH5/DASA)): DH5 vs DH5 + dasatinib competition, imputed data
# Experimental: HEK293T cells were plated on two 100 mm dishes for each condition and co-transfected next day with 8 µg of pTol2-HA-Halo^8KR-PafA^S126A,K172R and 16 µg of pEF6a-SBP^K4R-sPup^K61R per dish. […] Cells were harvested in 1 ml of RIPA buffer, supplemented with a protease inhibitor cocktail for each dish. Following brief sonication, cell debris was removed by centrifugation at maximum speed for 10 min at 4°C. The supernatants were collected and mixed with 200 µl of streptavidin magnetic beads that had been prewashed with RIPA buffer. […] The eluates were combined and precipitated using trichloroacetic acid (TCA)/DOC. The resultant protein pellets were neutralized with 1 M Tris-HCl pH 8.8, and separated by Tricine-SDS-PAGE, and the CBB-stained bands were excised, with those smaller than 10 kD being removed, and processed for mass analysis.
# Excised gels were sliced into small pieces of ~1 mm^3, rinsed three times with Milli-Q water, decolorized with 50% acetonitrile and 100 mM NH4HCO3, and dehydrated with 100% acetonitrile. The dehydrated gel pieces were then reduced with 10 mM DTT in 50 mM NH4HCO3 at 56°C for 1 hr, carboxymethylated with 55 mM iodoacetamide in the dark at room temperature for 30 min, and digested with trypsin at a 1:50 enzyme to protein mass ratio at 37°C overnight. The peptides were collected, desalted with ZipTipC18 (ZTC18S096, Millipore, USA), dried under vacuum, and stored at –20°C until MS analysis. The resulting tryptic peptides were analyzed by LC-MS/MS at the Institute of Hydrobiology (Chinese Academy of Sciences, Wuhan, China). LC-MS/MS data acquisition was performed using a Q Exactive HF-X mass spectrometer coupled with an Easy-nLC 1200 system (Thermo Fisher Scientific, USA). The peptide mixtures were initially loaded onto a C18 trap column and subsequently separated on a C18 reverse-phase analytical HPLC column, Acclaim PepMap C18 column (75 µm ID ×250 mm, 2 µm particle size, 100 Å pore size, Thermo Fisher Scientific), employing a 100 min gradient program with mobile phase A (0.1% formic acid) and mobile phase B (80% acetonitrile, 0.1% formic acid). The gradient program was as follows: 0–65 min, 5–23% B; 65–85 min, 23–45% B; 85–86 min, 45–90% B; 87–90 min, 90% B; 90–90.1 min, 90–5% B; 90.1–100 min, 5% B, maintained at a constant flow rate of 300 nl/min. For data-dependent acquisition mode analysis, each scan cycle consisted of one full-scan mass spectrum (R = 60 K, AGC = 3e6, max IT = 20 ms, scan range = 350–1800 m/z) followed by 20 MS/MS events (R = 15 K, AGC = 2e5, max IT = 50 ms). The higher-energy collisional dissociation collision energy was set to 28 for ion fragmentation. The isolation window for precursor selection was set to 1.6 Da. The former target ion exclusion was set for 25 s.
# For the identification of DH5 targets, raw MS data were analyzed using MaxQuant (version 2.1.0.0, Max Planck Institute of Biochemistry; [Cox and Mann, 2008]) with the Andromeda search engine. The MS data were aligned to the UniProt human protein database (Proteome ID: UP000005640). […] Variable modifications included oxidation (M), acetyl (Protein N-term), deamidation (NQ), and GGE (K). The false discovery rate for both peptide and protein identification was set at 1%. The ‘Match Between run’ option were enabled, with other settings at their default values. Missing values from identified proteins were filled through random imputation and further analyzed statistically to derive p values through unpaired SAM analysis using PANDA-view ([Chang et al., 2018]). Proteins commonly present under DMSO condition were considered nonspecific background interactions and excluded from further analysis.
# SRC [6] = molecular target: T4, SRC (Danio rerio, UniProt Q1JPZ3); test: In vivo pupylation assay using zebrafish embryos; details: 10 µM DH5, 24 hr, versus DMSO
# T4 construct: from tissue; host or cells: whole zebrafish embryos (AB strain) injected with the POST-IT plasmid
# Experimental: To express POST-IT in early zebrafish embryos, 20 pg of pUbi-QFGal4-2A-3×Flag-POST-IT plasmid and 25 pg of transposase mRNA were injected into an embryo at the one-cell stage. The next day, GFP-positive and live embryos were selected, dechorionated with Pronase E (HY-114158, MedChemExpress, USA), and divided into two groups of approximately 1000 embryos each. One group was treated with DMSO and the other with 10 µM DH5 for 24 hr. The embryos were then collected, rinsed with PBS, and lysed in cell lysis buffer using a motorized plastic pestle. The resulting lysates were cleared by centrifugation, and protein concentrations were measured using the BCA assay. Samples were diluted to 2 mg/ml in 1 ml, mixed with 200 µl of prewashed streptavidin magnetic beads, and incubated at 4°C for 3 hr. The beads were washed five times with wash buffer A. Proteins were eluted with 2×SDS sample buffer and subsequently processed for western blot analysis.
# SRC(251-536) = SRC(251-536) (Homo sapiens, UniProt P12931); test: SRC kinase activity assay (Kinase-Lumi luminescent)
# Sequence of SRC(251-536) (P12931 251-536): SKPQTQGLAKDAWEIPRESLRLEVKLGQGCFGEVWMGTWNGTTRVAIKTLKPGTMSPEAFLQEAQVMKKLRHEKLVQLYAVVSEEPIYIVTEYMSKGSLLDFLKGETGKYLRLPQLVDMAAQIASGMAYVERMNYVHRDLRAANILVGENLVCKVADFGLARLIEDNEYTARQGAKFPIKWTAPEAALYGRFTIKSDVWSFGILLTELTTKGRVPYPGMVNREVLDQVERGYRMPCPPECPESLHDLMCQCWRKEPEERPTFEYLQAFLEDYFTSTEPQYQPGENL
# T3 sequence (P12931 2-536): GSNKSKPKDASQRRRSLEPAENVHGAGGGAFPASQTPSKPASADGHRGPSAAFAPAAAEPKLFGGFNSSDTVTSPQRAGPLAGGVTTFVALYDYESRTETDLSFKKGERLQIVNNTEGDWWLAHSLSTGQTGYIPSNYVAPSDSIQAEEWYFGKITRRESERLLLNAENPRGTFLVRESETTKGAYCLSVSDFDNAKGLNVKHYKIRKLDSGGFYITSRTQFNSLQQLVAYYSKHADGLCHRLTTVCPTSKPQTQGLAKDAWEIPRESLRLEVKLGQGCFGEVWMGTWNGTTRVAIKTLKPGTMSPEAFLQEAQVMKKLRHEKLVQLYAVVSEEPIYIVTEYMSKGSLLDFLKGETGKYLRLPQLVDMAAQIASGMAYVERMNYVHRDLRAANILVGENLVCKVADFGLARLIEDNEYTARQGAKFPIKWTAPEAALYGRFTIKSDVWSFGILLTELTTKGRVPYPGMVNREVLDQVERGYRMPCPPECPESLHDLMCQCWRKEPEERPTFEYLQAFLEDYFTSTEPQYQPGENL
# T4 sequence (Q1JPZ3 whole entry): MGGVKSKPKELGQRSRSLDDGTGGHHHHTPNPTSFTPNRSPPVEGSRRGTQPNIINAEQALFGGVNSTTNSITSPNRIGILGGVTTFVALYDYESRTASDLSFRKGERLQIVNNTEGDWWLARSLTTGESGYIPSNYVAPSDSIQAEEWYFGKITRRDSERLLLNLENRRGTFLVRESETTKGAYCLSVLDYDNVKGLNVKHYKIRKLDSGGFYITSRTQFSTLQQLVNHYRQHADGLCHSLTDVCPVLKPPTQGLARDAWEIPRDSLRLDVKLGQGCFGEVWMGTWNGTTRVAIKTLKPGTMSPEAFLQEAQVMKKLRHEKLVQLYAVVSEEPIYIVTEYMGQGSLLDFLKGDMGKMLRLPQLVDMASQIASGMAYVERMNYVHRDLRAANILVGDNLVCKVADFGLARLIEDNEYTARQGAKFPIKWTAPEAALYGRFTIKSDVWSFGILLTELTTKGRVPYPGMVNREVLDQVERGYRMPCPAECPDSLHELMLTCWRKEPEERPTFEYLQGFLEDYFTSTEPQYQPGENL
# T2 sequence (Q99611 with tags, fused parts or gaps U60C): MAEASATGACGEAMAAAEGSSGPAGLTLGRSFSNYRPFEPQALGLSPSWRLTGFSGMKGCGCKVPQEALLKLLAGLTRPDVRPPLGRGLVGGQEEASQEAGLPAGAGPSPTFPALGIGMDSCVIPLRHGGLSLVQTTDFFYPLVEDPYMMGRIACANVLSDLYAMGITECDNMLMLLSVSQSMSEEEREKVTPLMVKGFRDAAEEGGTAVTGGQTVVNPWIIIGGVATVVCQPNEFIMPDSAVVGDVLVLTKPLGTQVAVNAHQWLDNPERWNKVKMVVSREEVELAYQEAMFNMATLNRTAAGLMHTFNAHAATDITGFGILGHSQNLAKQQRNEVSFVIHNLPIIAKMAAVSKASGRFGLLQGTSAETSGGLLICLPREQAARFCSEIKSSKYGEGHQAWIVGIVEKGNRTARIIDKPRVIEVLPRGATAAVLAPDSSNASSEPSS
# T1 sequence (A5D8V6 whole entry): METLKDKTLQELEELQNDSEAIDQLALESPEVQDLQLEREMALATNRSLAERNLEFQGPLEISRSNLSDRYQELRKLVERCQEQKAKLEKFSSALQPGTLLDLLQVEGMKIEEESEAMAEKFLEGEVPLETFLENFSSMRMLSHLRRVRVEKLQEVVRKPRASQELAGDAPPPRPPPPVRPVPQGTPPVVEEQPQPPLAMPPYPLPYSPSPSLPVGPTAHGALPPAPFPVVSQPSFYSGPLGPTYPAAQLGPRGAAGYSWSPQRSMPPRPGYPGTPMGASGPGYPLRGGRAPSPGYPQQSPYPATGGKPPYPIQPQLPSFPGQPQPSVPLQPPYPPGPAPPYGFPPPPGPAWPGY
SMILES,target proteins identified by POST-IT^DC661-H1 (SILAC) (HEK293T cells [1]),levels of LC3-II band (autophagy inhibition) (LC3-II [2]),levels of LC3-II band (autophagy inhibition) (LC3-II [3]),enrichment of VPS37C-V5 after streptavidin pulldown (VPS37C-V5),Kd (SEPHS2) [µM],POST-IT pulldown of endogenous SRC (SRC [4]),"target proteins identified by POST-IT^DH5 (HEK293T cells [5]; HEK293T, 250 nM DH5 with or without 2.5 µM dasatinib, 24 hr)",FC(DH5/DASA) (HEK293T cells [5]; protein AAGAB),log2(FC(DH5/DASA)) (HEK293T cells [5]; protein AAGAB),FC(DH5/DASA) (HEK293T cells [5]; protein AAK1),log2(FC(DH5/DASA)) (HEK293T cells [5]; protein AAK1),FC(DH5/DASA) (HEK293T cells [5]; protein AAMDC),log2(FC(DH5/DASA)) (HEK293T cells [5]; protein AAMDC),FC(DH5/DASA) (HEK293T cells [5]; protein AAR2),log2(FC(DH5/DASA)) (HEK293T cells [5]; protein AAR2),FC(DH5/DASA) (HEK293T cells [5]; protein AARS),log2(FC(DH5/DASA)) (HEK293T cells [5]; protein AARS),enrichment of endogenous SRC by POST-IT in live embryos (SRC [6]),IC50 (SRC(251-536)) [µM]
O=C(CN(CCCCCCNc1ccnc2cc(Cl)ccc12)CCCCCCNc1ccnc2cc(Cl)ccc12)NCCCCCNC(=O)OCCOCCOCCOC(=O)NCCOCCOCCCCCCCl [DC661-H1],identified several target proteins directly linked to autophagy regulation,significantly increased,significantly increased,substantially enriched,–,–,–,–,–,–,–,–,–,–,–,–,–,–,–
"Cc1nc(Nc2ncc(C(=O)Nc3c(C)cccc3Cl)s2)cc(N2CCN(CCOC(=O)NCCCCCNC(=O)OCCOCCOCCOC(=O)NCCOCCOCCCCCCCl)CC2)n1 [DH5, 23-Chloro-10-oxo-3,6,9,14,17-pentaoxa-11-azatricosyl(2-(4-(6-((5-((2-chloro-6-methylphenyl)carbamoyl)thiazol-2-yl)amino)-2-methylpyrimidin-4-yl)piperazin-1-yl)ethyl) pentane-1,5-diyldicarbamate]",–,–,–,–,11.6 ± 5.7,efficiently pull down endogenous SRC,"eight known target proteins (FYN, RIPK2, MAPK14, ABL2, ABL1, CSK, LYN, and SRC) with significant enrichment",1.3259,0.4070,2.0012,1.0009,1.9368,0.9537,1.5565,0.6383,1.1988,0.2616,marked enrichment,0.452
